For one assay, the system named is FADD−/− Jurkat cells. Put plainly: Necroptosis inhibition assay, TNF-α-induced necroptosis (CellTiter-Glo 2.0). The settings on record: TNF-α 15 ng/mL; for Necroptosis inhibition assay (Rescue %) 1 μM: compound 1 μM; for Necroptosis inhibition assay (Rescue %) 10 μM: compound 10 μM. Format: cell-based, human. The gist of the method:
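Cells at 5.0×10^5 cells/mL were pretreated with compound (final 0.1, 1 and 10 μM) for 30 minutes at room temperature, then given TNF-α at 15 ng/mL final. After 20 to 24 hours at 37° C, 5% CO2, viability was read as ATP luminescence to calculate cytotoxicity and necroptosis inhibition rate.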
A general note: ATP-based viability assays read luminescence as a measure of living cells.

Assay [1] has as its target T1, MLKL (Homo sapiens, UniProt Q8NB16).
T1 sequence (Q8NB16 1-471): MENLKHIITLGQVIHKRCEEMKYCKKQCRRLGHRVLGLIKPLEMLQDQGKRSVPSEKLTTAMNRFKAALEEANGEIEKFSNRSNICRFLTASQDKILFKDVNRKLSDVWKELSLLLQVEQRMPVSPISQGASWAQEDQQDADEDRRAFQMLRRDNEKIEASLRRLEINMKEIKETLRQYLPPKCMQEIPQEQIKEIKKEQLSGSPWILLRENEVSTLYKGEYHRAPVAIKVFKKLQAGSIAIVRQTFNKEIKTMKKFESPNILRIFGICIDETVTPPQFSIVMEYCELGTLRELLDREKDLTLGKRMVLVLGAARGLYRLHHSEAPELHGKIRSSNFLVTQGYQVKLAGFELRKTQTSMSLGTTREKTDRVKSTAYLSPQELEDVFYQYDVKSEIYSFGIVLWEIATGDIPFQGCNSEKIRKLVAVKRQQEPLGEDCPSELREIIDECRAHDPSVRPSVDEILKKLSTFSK
Put plainly: MLKL degradation assay in HepG2 cell line (western blot). Also noted: endogenous in cells; host or cells: HepG2 or HaCaT. The note with it: cell line not given; for Degradation assay (Degradation %) 1 μM: compound 1 μM; for Degradation assay (Degradation %) 10 μM: compound 10 μM. The assay is classed as cell-based. The gist of the method:
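HepG2 cells were exposed to compound at a final 1 or 10 μM for 20-24 hours at 37 °C, 5% CO2. RIPA lysates were normalized by BCA assay, 10-15 μg protein resolved by SDS-PAGE, and MLKL levels detected by western blot with chemiluminescence.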
For orientation: A western blot detects proteins with antibodies after separation by electrophoresis.

For assay [2], the target named is T1, MLKL. Put plainly: Measurement of binding affinity with MLKL receptor (competitive binding assay, Kd). Also noted: made in house; host or cells: HEK 293 cell line (T7 phage in E. coli BL21-derived host is also described). In a few lines:
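Kd from an immobilized-ligand competition format: the DNA-tagged kinase from HEK 293 expression is eluted and quantified by qPCR. Compounds added from 111× DMSO stocks, final DMSO 0.9%.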

Usually Kd stands for the concentration at which binding is half-saturated. Consider `Nc1ncc(-c2cnn(C3CN(CC4CCN(C(=O)COc5ccc6c(c5)C(=O)N(C5CCC(=O)NC5=O)C6=O)CC4)C3)c2)nc1C(=O)OC(C(=O)Nc1ccc(F)cc1)c1ccccc1` (centres unmarked) [TDH-299, 2-((4-fluorophenyl)amino)-2-oxo-1-phenylethyl 3-amino-6-(1-(1-((1-(2-((2-(2,6-dioxopiperidin-3-yl)-1,3-dioxoisoindolin-5-yl)oxy)acetyl)piperidin-4-yl)methyl)azetidin-3-yl)-1H-pyrazol-4-yl)pyrazine-2-carboxylate], for which, in the assay with FADD−/− Jurkat cells, the “Necroptosis inhibition assay (Rescue %) 1 μM” value came out at 75.61% and the “Necroptosis inhibition assay (Rescue %) 10 μM” value was found to be 62.7%. Further, at MLKL [1], the “Degradation assay (Degradation %) 1 μM” value is 79.84% and the “Degradation assay (Degradation %) 10 μM” value stood at 89.54%. On MLKL [2], this compound registered a Kd of 7.2 nM.
For `Nc1ncc(-c2cnn(C3CCN(C(=O)CC4CCN(C(=O)C5CCN(c6ccc7c(c6)C(=O)N(C6CCC(=O)NC6=O)C7=O)CC5)CC4)CC3)c2)nc1C(=O)O[C@@H](C(=O)Nc1ccc(F)cc1)c1ccccc1` (stereo partly drawn) [TDH-342, (R)-2-((4-fluorophenyl)amino)-2-oxo-1-phenylethyl 3-amino-6-(1-(1-(2-(1-(1-(2-(2,6-dioxopiperidin-3-yl)-1,3-dioxoisoindolin-5-yl)piperidine-4-carbonyl)piperidin-4-yl)acetyl)piperidin-4-yl)-1H-pyrazol-4-yl)pyrazine-2-carboxylate], in the assay on FADD−/− Jurkat cells, the “Necroptosis inhibition assay (Rescue %) 1 μM” value is 28.05% and the “Necroptosis inhibition assay (Rescue %) 10 μM” value is reported as 17.55%. For the same compound, on MLKL [1], the “Degradation assay (Degradation %) 1 μM” value worked out at 70.74% and the “Degradation assay (Degradation %) 10 μM” value came out at 54.03%. At MLKL [2], this compound had a Kd of 5.8 nM.
For `Nc1ncc(-c2cnn(C3CCN(CC4CCN(CC(=O)N5CC(Nc6cccc7c6C(=O)N(C6CCC(=O)NC6=O)C7=O)C5)CC4)CC3)c2)nc1C(=O)OC(C(=O)Nc1ccc(F)cc1)c1ccccc1` (centres unmarked) [TDH-271, 2-((4-fluorophenyl)amino)-2-oxo-1-phenylethyl 3-amino-6-(1-(1-((1-(2-(3-((2-(2,6-dioxopiperidin-3-yl)-1,3-dioxoisoindolin-4-yl)amino)azetidin-1-yl)-2-oxoethyl)piperidin-4-yl)methyl)piperidin-4-yl)-1H-pyrazol-4-yl)pyrazine-2-carboxylate], in the assay with FADD−/− Jurkat cells, the “Necroptosis inhibition assay (Rescue %) 1 μM” value came to 45.32% and the “Necroptosis inhibition assay (Rescue %) 10 μM” value stood at 76.94%. At MLKL [1], the “Degradation assay (Degradation %) 1 μM” value is on record as 1.47% and the “Degradation assay (Degradation %) 10 μM” value is 4.22%. The Kd on MLKL [2] was determined as 85 nM.
Consider `Nc1ncc(-c2cnn(C3CCN(CCC4CCN(c5ccc6nnn(C7CCC(=O)NC7=O)c(=O)c6c5)CC4)CC3)c2)nc1C(=O)OC(C(=O)Nc1ccc(F)cc1)c1ccccc1` (centres unmarked) [TDH-295, 2-((4-fluorophenyl)amino)-2-oxo-1-phenylethyl 3-amino-6-(1-(1-(2-(1-(3-(2,6-dioxopiperidin-3-yl)-4-oxo-3,4-dihydrobenzo[d][1,2,3]triazin-6-yl)piperidin-4-yl)ethyl)piperidin-4-yl)-1H-pyrazol-4-yl)pyrazine-2-carboxylate], for which, in the assay on FADD−/− Jurkat cells, the “Necroptosis inhibition assay (Rescue %) 1 μM” value was determined as 63.46% and the “Necroptosis inhibition assay (Rescue %) 10 μM” value stood at 37.73%. At MLKL [1], the “Degradation assay (Degradation %) 1 μM” value is listed as 70.94% and the “Degradation assay (Degradation %) 10 μM” value came to 57.99%. On MLKL [2], this compound displayed a Kd of 8.1 nM.
As to `Nc1ncc(-c2cnn(C3CCN(C(=O)CCC4CCN(C(=O)CNc5cccc6nnn(C7CCC(=O)NC7=O)c(=O)c56)CC4)CC3)c2)nc1C(=O)O[C@@H](C(=O)Nc1ccc(F)cc1)c1ccccc1` (stereo partly drawn) [TDH-433, (R)-2-((4-fluorophenyl)amino)-2-oxo-1-phenylethyl 3-amino-6-(1-(1-(3-(1-((3-(2,6-dioxopiperidin-3-yl)-4-oxo-3,4-dihydrobenzo[d][1,2,3]triazin-5-yl)glycyl)piperidin-4-yl)propanoyl)piperidin-4-yl)-1H-pyrazol-4-yl)pyrazine-2-carboxylate], in the assay on FADD−/− Jurkat cells (FADD−/− Jurkat cells), the “Necroptosis inhibition assay (Rescue %) 1 μM” value stood at 16.00% and the “Necroptosis inhibition assay (Rescue %) 10 μM” value was 11.01%. For the same compound, on MLKL [1], the “Degradation assay (Degradation %) 1 μM” value is on record as 74.16% and the “Degradation assay (Degradation %) 10 μM” value was found to be 46.20%. Further, on MLKL [2], the affinity, expressed as Kd, was 2.1 nM.
Take `Nc1ncc(-c2cnn(C3CCN(CCOCCOCCNC(=O)C4CCN(c5cccc6c5C(=O)N(C5CCC(=O)NC5=O)C6=O)CC4)CC3)c2)nc1C(=O)O[C@@H](C(=O)Nc1ccc(F)cc1)c1ccccc1` (stereo partly drawn) [TDH-110, (R)-2-((4-fluorophenyl)amino)-2-oxo-1-phenylethyl 3-amino-6-(1-(1-(2-(2-(2-(1-(2-(2,6-dioxopiperidin-3-yl)-1,3-dioxoisoindolin-4-yl)piperidine-4-carboxamido)ethoxy)ethoxy)ethyl)piperidin-4-yl)-1H-pyrazol-4-yl)pyrazine-2-carboxylate]: in the assay with FADD−/− Jurkat cells, the “Necroptosis inhibition assay (Rescue %) 1 μM” value was 55.93% and the “Necroptosis inhibition assay (Rescue %) 10 μM” value is 72.8%. On MLKL [1], the “Degradation assay (Degradation %) 1 μM” value turned out to be 9.84% and the “Degradation assay (Degradation %) 10 μM” value is 46.89%. Further, binding on MLKL [2] was characterised by a dissociation constant (Kd) of 5.2 nM.
Turning to `Nc1ncc(-c2cnn(C3CCN(C(=O)CC4CCN(C(=O)CC5CCN(c6ccc7c(c6)C(=O)N(C6CCC(=O)NC6=O)C7=O)CC5)CC4)CC3)c2)nc1C(=O)O[C@@H](C(=O)Nc1ccc(F)cc1)c1ccccc1` (stereo partly drawn) [TDH-402, (R)-2-((4-fluorophenyl)amino)-2-oxo-1-phenylethyl 3-amino-6-(1-(1-(2-(1-(2-(1-(2-(2,6-dioxopiperidin-3-yl)-1,3-dioxoisoindolin-5-yl)piperidin-4-yl)acetyl)piperidin-4-yl)acetyl)piperidin-4-yl)-1H-pyrazol-4-yl)pyrazine-2-carboxylate], in the assay with FADD−/− Jurkat cells (FADD−/− Jurkat cells), the “Necroptosis inhibition assay (Rescue %) 1 μM” value was found to be 23.40% and the “Necroptosis inhibition assay (Rescue %) 10 μM” value is 19.16%. Moreover, on MLKL [1], the “Degradation assay (Degradation %) 1 μM” value was determined as 65.36% and the “Degradation assay (Degradation %) 10 μM” value is given as 48.34%. Further, the Kd at MLKL [2] is 7.7 nM.
Taken in the same sequence, the figures for `COc1ccc(C(=O)N2CCC(CN3CCC(CCN4CCC(n5cc(-c6cnc(N)c(C(=O)O[C@@H](C(=O)Nc7ccc(F)cc7)c7ccccc7)n6)cn5)CC4)CC3)CC2)cc1N1CCC(=O)NC1=O` [TDH-505, (R)-2-((4-fluorophenyl)amino)-2-oxo-1-phenylethyl 3-amino-6-(1-(1-(2-(1-((1-(3-(2,4-dioxotetrahydropyrimidin-1(2H)-yl)-4-methoxybenzoyl)piperidin-4-yl)methyl)piperidin-4-yl)ethyl)piperidin-4-yl)-1H-pyrazol-4-yl)pyrazine-2-carboxylate] were 102.00%, 76.87%, 90.52%, 94.63% and 0.36 nM.
In the case of `Nc1ncc(-c2cnn(C3CCN(CCC4CCN(C(=O)CNc5ccc6nnn(C7CCC(=O)NC7=O)c(=O)c6c5)CC4)CC3)c2)nc1C(=O)OC(C(=O)Nc1ccc(F)cc1)c1ccccc1` (centres unmarked) [TDH-292, 2-((4-fluorophenyl)amino)-2-oxo-1-phenylethyl 3-amino-6-(1-(1-(2-(1-((3-(2,6-dioxopiperidin-3-yl)-4-oxo-3,4-dihydrobenzo[d][1,2,3]triazin-6-yl)glycyl)piperidin-4-yl)ethyl)piperidin-4-yl)-1H-pyrazol-4-yl)pyrazine-2-carboxylate], in the assay with FADD−/− Jurkat cells, the “Necroptosis inhibition assay (Rescue %) 1 μM” value amounted to 78.15% and the “Necroptosis inhibition assay (Rescue %) 10 μM” value is reported as 73.02%. On MLKL [1], the “Degradation assay (Degradation %) 1 μM” value is 79.96% and the “Degradation assay (Degradation %) 10 μM” value is 81.68%. In addition, at MLKL [2], binding was characterised by a dissociation constant (Kd) of 2.3 nM.
Consider `Nc1ncc(-c2cnn(C3CCN(C(=O)CC4CCN(C(=O)CCc5cccc6c5CN(C5CCC(=O)NC5=O)C6=O)CC4)CC3)c2)nc1C(=O)O[C@@H](C(=O)Nc1ccc(F)cc1)c1ccccc1` (stereo partly drawn) [TDH-404, (R)-2-((4-fluorophenyl)amino)-2-oxo-1-phenylethyl 3-amino-6-(1-(1-(2-(1-(3-(2-(2,6-dioxopiperidin-3-yl)-1-oxoisoindolin-4-yl)propanoyl)piperidin-4-yl)acetyl)piperidin-4-yl)-1H-pyrazol-4-yl)pyrazine-2-carboxylate], for which, in the assay on FADD−/− Jurkat cells (FADD−/− Jurkat cells), the “Necroptosis inhibition assay (Rescue %) 1 μM” value is listed as 26.83% and the “Necroptosis inhibition assay (Rescue %) 10 μM” value was 49.11%. Besides, on MLKL [1], the “Degradation assay (Degradation %) 1 μM” value was 45.30% and the “Degradation assay (Degradation %) 10 μM” value is listed as 79.08%. Further, the Kd on MLKL [2] was found to be 1.1 nM.
